# Measurements as given in patent US20230233583A1, “USE OF PHYTOCANNABINOIDS FOR TREATING MULTIPLE MYELOMA” (priority 2020, published 2023).
# Legend:
# SKO = assay: MTT cytotoxicity assay in SKO MM cell line; conditions: for IC50: Homo sapiens, 72 h, read-out: IC50 (μM) ± S.D.; for % VIABILITY ± S.D.: SKO, daily, 72 hours, vs vehicle
# Experimental: MTT cytotoxicity assay: MM cell lines (4×10^4 cells/ml) were seeded in 96-well plates, in a final volume of 100 μl/well. After 24 hours, CBG, CBC, CBN, CBDV alone and in combination or vehicle were added at different concentrations, for 72 hours. At least six replicates were used for each treatment. At the indicated time point, cell viability was assessed by adding 0.8 mg/ml of 3-[4,5-dimethylthiazol-2-yl]-2,5 diphenyl tetrazolium bromide (MTT) (Sigma-Aldrich) to the media. After 3 hours, the plates were centrifuged, the supernatant was removed, and the pellet was solubilized with 100 μl/well dimethyl sulfoxide (DMSO). The absorbance of the samples against a background control (medium alone) was measured at 570 nm using an ELISA reader microliter plate (BioTek™ Instruments, Winooski, Vt., USA).
# Cells were treated with different doses of CBG, CBC, CBN and CBDV (up to 100 μM) and percentage of cell viability was evaluated by the MTT assay.
# The cannabinoids were administered daily for 72 hours, as in previous experiments at the desired doses. Each combination was evaluated in six wells and in two separate experiments. MTT assay was used to analyze the cell cytotoxicity. The values in the tables are represented as % of cell viability compared to vehicle-treated cells.
# in vitro = type: cell-based, human; conditions: human, HuOB, daily, 72 hours, vs vehicle, read-out: % VIABILITY ± S.D.; for viability at 72 h, 12.5 μM: single phytocannabinoid 12.5 μM; for viability at 72 h, 25 μM: single phytocannabinoid 25 μM
# Experimental: (§1) At least six replicates were used for each treatment.
# (§2) Cell culture: The HuOB, an immortalized human osteoblast cell line derived from femoral head (INS-CI-1005, Inscreeex GmbH, Germany) was grown in HuOB Maintenance Medium (INS-ME-1006).
# (§3) IC50 values, relative to daily administration, were obtained. The efficacy in reducing cell viability was generally highest for CBDV, followed by CBN, CBC and CBG.
# (§4) Phytocannabinoid combinations in HuOB cell line viability: Before setting up the co-culture experiments with HuOB and MM cell lines, the less cytotoxic doses of phytocannabinoid combinations were evaluated in HuOB. […] The standard deviation of the data reported was <10%. […] Additionally, a triple combination with CBG, CBC and CBN at 12.5 μM for each phytocannabinoid, was performed (Table 9).
# HuOB cell line = assay: cells; type: cell-based, human; conditions: for IC50: Homo sapiens, 72 h, read-out: IC50 (μM) ± S.D.
# Experimental: as §1, §2, §3, §4
# RPMI = assay: Invasion assay in co-culture of HuOB and RPMI; type: cell-based, human; conditions: for effect on MM cell invasion, in words: RPMI in co-culture with HuOB, 24 hours
# Experimental: Invasion assay: HuOB cells (1.5×10^4) were plated on the surface of Matrigel in a BioCoat™ Matrigel® Invasion Chamber, 8.0 μm PET Membrane (Coming®, cod. 354480) and incubated for two days. After, U266 and RPMI (2.5×10^4) were pre-stained with Calcein (1 μM) for two hours, then treated with CBG (12.5 μM), CBC (12.5 μM), CBN (12.5 μM) and CBDV (6.25 μM) and added in the chambers. MM cells with HuOB, untreated, were used as invasion positive control, MM cells without HuOB cells were used as negative control. After 24 hours, the number of MM cells that invaded the Matrigel were analysed via fluorescent microscope. Eight 10× sections images were counted for each chamber.
# Invasion assay in co-culture of HuOB and MM cell lines: This study evaluated the effect of phytocannabinoids in reducing the invasion of MM cell lines toward HuOB. HuOB were plated on the surface of Matrigel in the BioCoat™ Matrigel® Invasion Chamber, 8.0 μm PET Membrane (Corning®, cod. 354480) and incubated for two days. After, U266 or RPMI were pre-stained with Calcein (10 μM) for two hours, then treated with CBG (25 μM), CBC (25 μM), CBN (25 μM) and CBDV (12.5 μM) and added in the chambers. MM cells with HuOB, untreated, were used as an invasion positive control, MM cells without HuOB cells were used as a negative control. After 24 hours, the number of MM cells that invaded the Matrigel were analysed via fluorescent microscope. Eight 10× sections images were counted for each chamber.
# [1] = system: H2AX levels in MM cell lines; assay: Western blot analysis for H2AX; type: cell-based, human; conditions: 48 hours, daily; CBG, CBN, CBDV 25 μM, CBC 75 μM
# Experimental: 4×10^4 cells were plated in 6 well plates and treated for 48 hours with daily administration of CBG (25 μM; FIG. 17), CBC (75 μM; FIG. 18), CBN (25 μM; FIG. 19) or CBDV (25 μM; FIG. 20). Densitometric analysis was carried out by evaluating two independent experiments by a Chemidoc using the Quantity One software (BioRad, Hercules, USA). H2AX densitometry values were normalized to GAPDH used as loading control and normalized with non-treated cells. Densitometric values shown are the mean±SE of two separate experiments.
# Western blot analysis for H2AX: 4×10^4 cells were plated in 6-well plates and treated daily for 48 hours with CBG, CBN or CBDV (25 μM) or CBC (75 μM). Ten micrograms of the myeloma cell line lysates were then separated on a SDS-polyacrylamide gel, transferred onto Hybond-C extra membranes (GE Healthcare), blocked with 5% of Bovine Serum Albumin (BSA) in phosphate buffered saline (PBS)-Tween 20, immunoblotted with rabbit anti-phospho-histone H2AX (Ser139) (1:1000, #9718, Cell Signaling) and rabbit anti-glyceraldehyde-3-phosphate dehydrogenase (GAPDH, 1:3000, #2118, OriGene, Rockville, Md., USA) antibodies incubated overnight and then incubated with their respective HRP-conjugated anti-rabbit (1:2000, Cell Signaling) antibodies for 1 hour. The detection was performed using the LiteAblot™ PLUS or the LiteAblot™ TURBO (EuroClone, Milano, Italy) kits and densitometric analysis was carried out by evaluating three independent experiments by a Chemidoc using the Quantity One software (BioRad, Hercules, USA). H2AX densitometry values were normalized to GAPDH used as loading control and normalized with non-treated cells. Densitometric values shown are the mean±SE of three separate experiments.
# Phytocannabinoids induce necrotic cell death in MM cell lines: To evaluate the cytotoxic mechanism induced by the phytocannabinoids, MM cell lines were treated daily with a cytotoxic dose for each phytocannabinoid (CBG: 25 μM; CBC 75 μM; CBN 25 μM; CBDV 25 μM) for 48 hours and then Annexin-V/PI cell positivity was evaluated by FACS analysis. The results evidenced that all of the phytocannabinoids induced necrotic cell death but had different efficacies (FIGS. 5-16). To confirm the necrotic cell death mechanism, MM cell lines were treated as above and DNA damage was evaluated by H2AX (a marker to examine the DNA damage produced and the subsequent repair of the DNA lesion) Western blot analysis and Comet assay (permits the analysis of DNA damage in single cell preparations). The result confirmed the DNA damage induced by the phytocannabinoid analysed. In particular, an increase of H2AX levels were observed by Western blot (FIGS. 17-20) and DNA damage by Comet assay that evidenced structures resembling comets in the treated cell lines (FIGS. 21-24).
# [2] = single phytocannabinoid 12.5 μM
SMILES,IC50 (SKO) [µM],% VIABILITY ± S.D. (SKO; [2]) [%],% VIABILITY ± S.D. (SKO; single phytocannabinoid 25 μM) [%],"viability at 72 h, 12.5 μM (in vitro) [%]","viability at 72 h, 25 μM (in vitro) [%]",IC50 (HuOB cell line) [µM],"cytotoxicity in HuOB cell line, in words (HuOB cell line; HuOB, 72 hours, daily administration)",AVERAGE OF CELLS/square (MM cells that invaded the Matrigel) (RPMI) [CELLS/square],"H2AX levels by Western blot, in words [1]","effect on MM cell invasion, in words (RPMI)"
"C=C(C)[C@@H]1CCC(C)=C[C@H]1c1c(O)cc(CCC)cc1O [CBDV, 2-[(1R,6R)-3-methyl-6-prop-1-en-2-ylcyclohex-2-en-1-yl]-5-propylbenzene-1,3-diol]",26.5 ± 2.1,82.1 ± 5.2,54.6 ± 4.4,72.1 ± 5.8,21.2 ± 1.1,14.3 ± 1,high cytotoxicity,35.6 ± 2.4,increased H2AX levels,
"CCCCCc1cc(O)c(C/C=C(\C)CCC=C(C)C)c(O)c1 [CBG, 2-[(2E)-3,7-dimethylocta-2,6-dienyl]-5-pentylbenzene-1,3-diol]",35 ± 1.8,105.4 ± 4.4,84.6 ± 5.5,104 ± 8.2,96.4 ± 7.3,44.8 ± 1.04,,1.6 ± 0.2,increased H2AX levels,higher activity
"CCCCCc1cc(O)c2c(c1)OC(C)(CCC=C(C)C)C=C2 (centres unmarked) [CBC, 2-methyl-2-(4-methylpent-3-enyl)-7-pentylchromen-5-ol]",69.7 ± 3.5,96.5 ± 6.7,94.3 ± 6.3,100 ± 8.3,99.8 ± 8.1,42.4 ± 1.05,,29.3 ± 1.7,increased H2AX levels,
"CCCCCc1cc(O)c2c(c1)OC(C)(C)c1ccc(C)cc1-2 [CBN, 6,6,9-trimethyl-3-pentylbenzo[c]chromen-1-ol]",28.5 ± 2.2,89.2 ± 5.9,60.6 ± 3.8,117 ± 7.7,81.7 ± 7.7,29 ± 3.07,,3.3 ± 0.1,increased H2AX levels,higher activity
